From US20230365541A1, “INHIBITOR OF ENHANCER OF ZESTE HOMOLOGUE 2, AND USE THEREOF” (HAISCO PHARMACEUTICALS PTE. LTD., priority 2020, published 2023) come the findings set out here.

For the test, the target named is EZH2 (Homo sapiens (Human), UniProt Q15910). Kind of test: Test method for EZH2 enzyme activity. It counts as biochemical. As to conditions: H3K27(21-44) and [3H]-SAM. As for the experimental part: The compounds were dissolved in DMSO, formulated into 10 mM solutions and serially diluted with DMSO to obtain 100-fold the final concentration. 200 nL of the solutions of the compounds was transferred to a 384-well plate (Perkin Elmer, Cat. No. 6007299) by using Echo550. EZH2 (BPS, Cat. No. 51004) was diluted with 1×assay buffer (50 mM Tris-HCl 9.0, 0.01% Tween-20, 1 mM DTT) to 2-fold the final concentration (EZH2: 3 nM). A mixed solution of H3K27(21-44) and [3H]-SAM (PerkinElmer, Lot. No. 2146246) (H3K27(21-44): 200 nM, [3H]-SAM: 100 nM) was formulated. The EZH2 diluted solution was taken and added to the 384-well plate at 10 μL/well (10 μL of 1×assay buffer was added in the control group). The plate was sealed and then incubated at room temperature for 15 minutes. 10 μL of the mixed solution of H3K27 (21-44) and [3H]-SAM was added to each well. The plate was sealed and then incubated at room temperature for 60 minutes. 50 μM of SAM (Sigma, Cat. No. A7007) was formulated at low temperature and added to the 384-well plate at 10 μL/well. The sample was taken at 25 μL/well, transferred to a flashplate and incubated at room temperature for at least 1 hour. The flashplate was washed 3 times with a plate washing liquid (dH2O+0.1% Tween-20) and read by using Microbeta. The inhibition rate was calculated in Excel according to: inhibition rate (%)=(maximum valuepositive control−detection signal value)/(maximum valuepositive control−minimum valuenegative control)*100, and IC50 values were fitted by using XL-Fit.
Chain of EZH2 (Q15910 other isoform, or with tags, fused parts or gaps isoform Q15910-2): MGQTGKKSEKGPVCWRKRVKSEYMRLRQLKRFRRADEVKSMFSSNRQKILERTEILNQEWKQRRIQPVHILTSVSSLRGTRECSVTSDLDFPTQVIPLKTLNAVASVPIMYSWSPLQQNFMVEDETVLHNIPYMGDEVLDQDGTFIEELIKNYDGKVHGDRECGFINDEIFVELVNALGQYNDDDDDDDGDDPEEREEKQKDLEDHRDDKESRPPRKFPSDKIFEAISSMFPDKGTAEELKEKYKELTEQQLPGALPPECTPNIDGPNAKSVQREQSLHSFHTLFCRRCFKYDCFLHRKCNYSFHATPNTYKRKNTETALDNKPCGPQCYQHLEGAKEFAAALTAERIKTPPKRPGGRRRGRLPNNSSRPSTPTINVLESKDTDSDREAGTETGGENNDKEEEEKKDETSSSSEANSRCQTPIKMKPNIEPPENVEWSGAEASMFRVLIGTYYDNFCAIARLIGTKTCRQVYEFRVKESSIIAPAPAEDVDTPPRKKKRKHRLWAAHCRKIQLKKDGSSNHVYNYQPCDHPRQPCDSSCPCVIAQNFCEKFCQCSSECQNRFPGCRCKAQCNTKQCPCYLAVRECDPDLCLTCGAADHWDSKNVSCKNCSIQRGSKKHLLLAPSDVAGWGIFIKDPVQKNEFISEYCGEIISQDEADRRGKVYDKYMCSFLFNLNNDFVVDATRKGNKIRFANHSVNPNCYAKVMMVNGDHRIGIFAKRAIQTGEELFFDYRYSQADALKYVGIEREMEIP
Chain of EZH2 (O75530 2-441 partner): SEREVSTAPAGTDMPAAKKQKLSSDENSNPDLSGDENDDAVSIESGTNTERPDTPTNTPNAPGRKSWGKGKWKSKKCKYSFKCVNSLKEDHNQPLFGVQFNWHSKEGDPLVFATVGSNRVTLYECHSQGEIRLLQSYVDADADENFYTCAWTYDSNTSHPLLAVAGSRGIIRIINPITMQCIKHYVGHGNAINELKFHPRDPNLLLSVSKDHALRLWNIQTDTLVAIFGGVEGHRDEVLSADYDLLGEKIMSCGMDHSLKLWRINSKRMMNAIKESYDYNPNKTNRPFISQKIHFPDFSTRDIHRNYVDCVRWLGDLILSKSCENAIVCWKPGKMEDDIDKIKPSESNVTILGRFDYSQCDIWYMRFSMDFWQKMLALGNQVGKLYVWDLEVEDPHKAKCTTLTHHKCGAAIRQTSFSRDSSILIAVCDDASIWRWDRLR
Chain of EZH2 (Q15022 2-739 partner): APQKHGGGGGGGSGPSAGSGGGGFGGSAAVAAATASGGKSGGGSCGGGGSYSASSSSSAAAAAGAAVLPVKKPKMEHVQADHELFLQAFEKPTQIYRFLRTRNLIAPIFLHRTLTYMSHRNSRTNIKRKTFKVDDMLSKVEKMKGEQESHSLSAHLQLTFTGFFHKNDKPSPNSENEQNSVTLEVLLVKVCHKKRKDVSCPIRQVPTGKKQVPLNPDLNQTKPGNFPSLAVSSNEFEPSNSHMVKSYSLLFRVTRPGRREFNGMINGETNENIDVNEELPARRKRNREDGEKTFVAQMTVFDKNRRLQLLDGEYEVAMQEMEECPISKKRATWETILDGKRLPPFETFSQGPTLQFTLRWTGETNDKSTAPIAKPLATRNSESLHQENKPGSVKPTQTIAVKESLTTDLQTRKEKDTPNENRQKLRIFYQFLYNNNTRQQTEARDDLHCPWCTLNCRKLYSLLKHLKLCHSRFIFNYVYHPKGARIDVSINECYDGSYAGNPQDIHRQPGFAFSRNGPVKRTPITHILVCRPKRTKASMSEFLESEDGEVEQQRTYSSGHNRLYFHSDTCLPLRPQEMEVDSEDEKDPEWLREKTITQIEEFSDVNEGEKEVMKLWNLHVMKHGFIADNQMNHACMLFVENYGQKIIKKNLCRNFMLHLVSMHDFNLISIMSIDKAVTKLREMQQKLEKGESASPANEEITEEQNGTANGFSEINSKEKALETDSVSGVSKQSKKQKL
Chain of EZH2 (Q09028 2-425 partner): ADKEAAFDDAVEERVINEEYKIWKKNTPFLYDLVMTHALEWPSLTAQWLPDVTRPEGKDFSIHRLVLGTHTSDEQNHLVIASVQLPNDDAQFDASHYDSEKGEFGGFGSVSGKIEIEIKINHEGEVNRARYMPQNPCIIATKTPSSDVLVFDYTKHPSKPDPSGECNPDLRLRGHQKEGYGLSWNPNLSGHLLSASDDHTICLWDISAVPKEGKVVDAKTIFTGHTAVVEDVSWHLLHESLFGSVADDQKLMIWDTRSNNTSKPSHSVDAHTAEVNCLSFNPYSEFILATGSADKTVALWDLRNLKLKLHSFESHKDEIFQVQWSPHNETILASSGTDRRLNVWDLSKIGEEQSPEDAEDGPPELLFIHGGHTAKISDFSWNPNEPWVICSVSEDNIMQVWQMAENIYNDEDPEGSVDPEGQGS
Chain of EZH2 (Q6ZN18 whole entry partner): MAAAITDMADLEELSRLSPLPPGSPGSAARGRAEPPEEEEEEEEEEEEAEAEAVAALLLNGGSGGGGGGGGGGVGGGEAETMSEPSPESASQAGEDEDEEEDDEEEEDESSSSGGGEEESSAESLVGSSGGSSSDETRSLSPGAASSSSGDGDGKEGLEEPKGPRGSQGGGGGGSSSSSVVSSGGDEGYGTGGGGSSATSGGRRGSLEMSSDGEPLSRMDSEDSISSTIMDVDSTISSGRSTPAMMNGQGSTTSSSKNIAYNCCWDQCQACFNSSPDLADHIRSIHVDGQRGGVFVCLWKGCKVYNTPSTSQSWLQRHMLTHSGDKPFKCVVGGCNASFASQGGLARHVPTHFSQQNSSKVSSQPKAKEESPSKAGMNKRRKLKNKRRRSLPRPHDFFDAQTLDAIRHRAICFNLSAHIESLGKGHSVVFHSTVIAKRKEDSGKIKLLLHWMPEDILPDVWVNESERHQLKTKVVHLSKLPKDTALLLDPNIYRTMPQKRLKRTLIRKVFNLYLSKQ
The term IC50 denotes the concentration that gives 50% inhibition. Low values mean inhibition by little substance, high ones a need for much substance. In turn, `CSc1cc(C)[nH]c(=O)c1CNC(=O)c1cc(Cl)c2c(c1C)OC(C)(C1CCC(NC3COC3)CC1)O2` (single isomer, unassigned) [Compound 61, isomer 2, 7-chloro-2,4-dimethyl-N-((6-methyl-4-(methylthio)-2-oxo-1,2-dihydropyridin-3-yl)methyl)-2-(4-(oxetan-3-ylamino)cyclohexyl)benzo[d][1,3]dioxole-5-carboxamide] came in with a concentration for half-maximal inhibition (IC50) of 0.25 nM.

Regarding `CSc1cc(C)[nH]c(=O)c1CNC(=O)c1cc(Cl)c2c(c1C)OC(C)(C1CCC(N3CC(C#N)C3)CC1)O2` (single isomer, unassigned) [Compound 2, isomer 2, 7-chloro-2-(4-(3-cyanoazetidin-1-yl)cyclohexyl)-2,4-dimethyl-N-((6-methyl-4-(methylthio)-2-oxo-1,2-dihydropyridin-3-yl)methyl)benzo[d][1,3]dioxole-5-carboxamide], inhibition was half-maximal at 0.72 nM (IC50).

`CSc1cc(C)[nH]c(=O)c1CNC(=O)c1cc(Cl)c2c(c1C)OC(C)(C1CCC(N(C)C3CC(F)(F)C3)CC1)O2` (stereo not drawn) [Compound 35, 7-chloro-2-(4-((3,3-difluorocyclobutyl)(methyl)amino)cyclohexyl)-2,4-dimethyl-N-((6-methyl-4-(methylthio)-2-oxo-1,2-dihydropyridin-3-yl)methyl)benzo[d][1,3]dioxole-5-carboxamide] displayed an IC50 of 0.59 nM.

As to `CSc1cc(C)[nH]c(=O)c1CNC(=O)c1cc(Cl)c2c(c1C)OC(C)([C@H]1CC[C@@H](N3CC(N4CCCC4)C3)CC1)O2` (single isomer, unassigned) [Compound 43, isomer 2, 7-chloro-2,4-dimethyl-N-((6-methyl-4-(methylthio)-2-oxo-1,2-dihydropyridin-3-yl)methyl)-2-(4-(3-(pyrrolidin-1-yl)azetidin-1-yl)cyclohexyl)benzo[d][1,3]dioxole-5-carboxamide], the concentration for half-maximal inhibition (IC50) was 0.42 nM.

For the compound `CSc1cc(C)[nH]c(=O)c1CNC(=O)c1cc(Cl)c2c(c1C)OC(C)([C@H]1CC[C@@H](N3CC4CN(C)CC4C3)CC1)O2` (single isomer, unassigned) [Compound 42, isomer 2, 7-chloro-2,4-dimethyl-N-((6-methyl-4-(methylthio)-2-oxo-1,2-dihydropyridin-3-yl)methyl)-2-(4-(5-methylhexahydropyrrolo[3,4-c]pyrrol-2(1H)-yl)cyclohexyl)benzo[d][1,3]dioxole-5-carboxamide], the midpoint of inhibition, the IC50, lay at 0.23 nM.

`CSc1cc(C)[nH]c(=O)c1CNC(=O)c1cc(Cl)c2c(c1C)OC(C)([C@H]1CC[C@@H](N3CC[Si](C)(C)CC3)CC1)O2` (single isomer, unassigned) [Compound 49, isomer 1, 7-chloro-2-(4-(4,4-dimethyl-1,4-azasilinan-1-yl)cyclohexyl)-2,4-dimethyl-N-((6-methyl-4-(methylthio)-2-oxo-1,2-dihydropyridin-3-yl)methyl)benzo[d][1,3]dioxole-5-carboxamide] showed a 50% inhibitory concentration (IC50) of 0.51 nM.

On to `CSc1cc(C)[nH]c(=O)c1CNC(=O)c1cc(Cl)c2c(c1C)OC(C)(C1CCC(N3CC(N(C)C)C3)CC1)O2` (single isomer, unassigned) [Compound 1, isomer 2, 7-chloro-2-(4-(3-(dimethylamino)azetidin-1-yl)cyclohexyl)-2,4-dimethyl-N-((6-methyl-4-(methylthio)-2-oxo-1,2-dihydropyridin-3-yl)methyl)benzo[d][1,3]dioxole-5-carboxamide], for which it took 0.6 nM to reach half-maximal inhibition (IC50).

In the case of `CSc1cc(C)[nH]c(=O)c1CNC(=O)c1cc(Cl)c2c(c1C)OC(C)(C1CCC(c3cnn(C)c3)CC1)O2` (single isomer, unassigned) [Compound 8, isomer 1, 7-chloro-2,4-dimethyl-2-(4-(1-methyl-1H-pyrazol-4-yl)cyclohexyl)-N-((6-methyl-4-(methylthio)-2-oxo-1,2-dihydropyridin-3-yl)methyl)benzo[d][1,3]dioxole-5-carboxamide], the IC50 amounted to 0.51 nM.

For `CSc1cc(C)[nH]c(=O)c1CNC(=O)c1cc(Cl)c2c(c1C)OC(C)(C1CCC(N[C@H]3C[C@H](O)C3)CC1)O2` (single isomer, unassigned) [Compound 45, isomer 1, 7-chloro-2-(4-((trans-3-hydroxycyclobutyl)amino)cyclohexyl)-2,4-dimethyl-N-((6-methyl-4-(methylthio)-2-oxo-1,2-dihydropyridin-3-yl)methyl)benzo[d][1,3]dioxole-5-carboxamide], half-maximal inhibition (IC50) was put at 0.28 nM.

As for `[2H]C([2H])(NC(=O)c1cc(Cl)c2c(c1C)OC(C)([C@H]1CC[C@@H](CN3CCOCC3)CC1)O2)c1c(SC)cc(C)[nH]c1=O` (single isomer, unassigned) [Compound 57, isomer 1, 7-chloro-2,4-dimethyl-N-((6-methyl-4-(methylthio)-2-oxo-1,2-dihydropyridin-3-yl)methyl-d2)-2-(4-(morpholinomethyl)cyclohexyl)benzo[d][1,3]dioxole-5-carboxamide], the half-maximal inhibitory concentration (IC50) was 0.46 nM.

On to `CSc1cc(C)[nH]c(=O)c1CNC(=O)c1cc(Cl)c2c(c1C)OC(C)(C1CCC(c3cnn(C)c3)CC1)O2` (single isomer, unassigned) [Compound 8, isomer 2, 7-chloro-2,4-dimethyl-2-(4-(1-methyl-1H-pyrazol-4-yl)cyclohexyl)-N-((6-methyl-4-(methylthio)-2-oxo-1,2-dihydropyridin-3-yl)methyl)benzo[d][1,3]dioxole-5-carboxamide], for which the concentration for half-maximal inhibition (IC50) is 0.9 nM.

As for `CSc1cc(C)[nH]c(=O)c1CNC(=O)c1cc(Cl)c2c(c1C)OC(C)(C1CCN(C3CC(F)(F)C3)CC1)O2` (single isomer, unassigned) [Compound 12, isomer 1, 7-chloro-2-(1-(3,3-difluorocyclobutyl)piperidin-4-yl)-2,4-dimethyl-N-((6-methyl-4-(methylthio)-2-oxo-1,2-dihydropyridin-3-yl)methyl)benzo[d][1,3]dioxole-5-carboxamide], the concentration for half-maximal inhibition (IC50) came out at 0.74 nM.

In the case of `CSc1cc(C)[nH]c(=O)c1CNC(=O)c1cc(Cl)c2c(c1C)OC(C)(C1CCN(C3CC3)CC1)O2` (stereo not drawn) [Compound 24, 7-chloro-2-(1-cyclopropylpiperidin-4-yl)-2,4-dimethyl-N-((6-methyl-4-(methylthio)-2-oxo-1,2-dihydropyridin-3-yl)methyl)benzo[d][1,3]dioxole-5-carboxamide], half-maximal inhibition (IC50) required 0.58 nM.

`COC1CC(N2CCC(C3(C)Oc4c(Cl)cc(C(=O)NCc5c(SC)cc(C)[nH]c5=O)c(C)c4O3)CC2)C1` (stereo not drawn) [Compound 33, 7-chloro-2-(1-(3-methoxycyclobutyl)piperidin-4-yl)-2,4-dimethyl-N-((6-methyl-4-(methylthio)-2-oxo-1,2-dihydropyridin-3-yl)methyl)benzo[d][1,3]dioxole-5-carboxamide]: inhibition was half-maximal at 0.57 nM (IC50).

In the case of `CO[C@H]1C[C@H](NC2CCC(C3(C)Oc4c(Cl)cc(C(=O)NCc5c(SC)cc(C)[nH]c5=O)c(C)c4O3)CC2)C1` (single isomer, unassigned) [Compound 9, isomer 2, 7-chloro-2-(4-((trans-3-methoxycyclobutyl)amino)cyclohexyl)-2,4-dimethyl-N-((6-methyl-4-(methylthio)-2-oxo-1,2-dihydropyridin-3-yl)methyl)benzo[d][1,3]dioxole-5-carboxamide], half-maximal inhibition (IC50) was put at 0.48 nM.

`[2H]C([2H])(NC(=O)c1cc(Cl)c2c(c1C)OC(C)(C1CCN(CC3CC(F)(F)C3)CC1)O2)c1c(SC)cc(C)[nH]c1=O` (stereo not drawn) [Compound 28, 7-chloro-2-(1-((3,3-difluorocyclobutyl)methyl)piperidin-4-yl)-2,4-dimethyl-N-((6-methyl-4-(methylthio)-2-oxo-1,2-dihydropyridin-3-yl)methyl-d2)benzo[d][1,3]dioxole-5-carboxamide] came in with a 50% inhibitory concentration (IC50) of 0.49 nM.

For the compound `CSc1cc(C)[nH]c(=O)c1CNC(=O)c1cc(Cl)c2c(c1C)OC(C)(C1CCN(C(=O)C3CC(F)(F)C3)CC1)O2` (single isomer, unassigned; isomer 2) [Compound 11, isomer 2, 7-chloro-2-(1-(3,3-difluorocyclobutane-1-carbonyl)piperidin-4-yl)-2,4-dimethyl-N-((6-methyl-4-(methylthio)-2-oxo-1,2-dihydropyridin-3-yl)methyl)benzo[d][1,3]dioxole-5-carboxamide], the IC50 came to 0.88 nM.

As for `CSc1cc(C)[nH]c(=O)c1CNC(=O)c1cc(Cl)c2c(c1C)OC(C)([C@H]1CC[C@H](CNC3CC(F)(F)C3)CC1)O2` (single isomer, unassigned) [Compound 40, isomer 1, 7-chloro-2-(4-(((3,3-difluorocyclobutyl)amino)methyl)cyclohexyl)-2,4-dimethyl-N-((6-methyl-4-(methylthio)-2-oxo-1,2-dihydropyridin-3-yl)methyl)benzo[d][1,3]dioxole-5-carboxamide], the concentration for half-maximal inhibition (IC50) was 0.61 nM.
